{"source": "patent US7537787B2", "about": "“Method for modulating glutamate and/or aspartate release in a central nervous system locus” (Indiana University Research and Technology Corporation, priority 1996, dated 2009)", "key": {"[1]": {"test_system": "rat hippocampal slices (glutamate release)", "test": "TRH inhibition of [K+]-stimulated glutamate release from superfused hippocampal slices in vitro", "type": "cell-based", "conditions": "for glutamate at 10 min. post stimulation: control 4.37±1.29; for peak 50 mM [K+]-stimulated glutamate release: control 48.05±8.59", "text": "TRH INHIBITION OF [K^+]-STIMULATED GLUTAMATE RELEASE FROM HIPPOCAMPAL SLICES IN VITRO. Enhanced excitatory amino acid release is suspected in pathways associated with seizures and excitotoxicity. In this regard, superfused hippocampal slices were used to investigate the hypothesis that TRH could inhibit glutamate release in vitro. Rat hippocampi were removed and sliced transversely (500 μm) under low magnification. Slices were weighed, washed in cold saline, transferred to individual tissue chambers floated in a 37° C. water bath and were equilibrated in oxygenated (95% O2/5% CO2), (37° C.) Kreb's buffer (KRB) for 120 min. (0.5 ml/min.). Slice chambers were then superfused 10 min. with KRB (control), or KRB containing 10 μM, 1 μM, or 0.1 μM TRH respectively, prior to 5 min. stimulation with modified KRB (50 mM [K^+]±TRH). Fractions (1 min.) were collected during the 5 min. stimulation and for an additional 10 min. (0.5 ml/min.) thereafter, and analyzed for glutamate by HPLC."}, "[2]": {"test_system": "Gαq/11 G proteins (TRH receptor)", "conditions": "sustained TRH exposure (16 hr.) to its receptor; cited from earlier work"}}, "data": [{"compound": "NC(=O)[C@@H]1CCCN1C(=O)[C@H](Cc1cnc[nH]1)NC(=O)[C@@H]1CCC(=O)N1", "note": "[TRH, Thyrotropin-releasing hormone]", "values": [{"measurement": "glutamate at 10 min. post stimulation", "setting": "[1]; 0.1 μM TRH", "value": "1.54±0.43", "unit": "μM/g/fraction"}, {"measurement": "peak 50 mM [K+]-stimulated glutamate release", "setting": "[1]; 0.1 μM TRH", "value": "1.38±0.28", "unit": "μM/g/fraction"}, {"measurement": "glutamate at 10 min. post stimulation", "setting": "[1]; 1 μM TRH", "value": "1.11±0.26", "unit": "μM/g/fraction"}, {"measurement": "peak 50 mM [K+]-stimulated glutamate release", "setting": "[1]; 1 μM TRH", "value": "1.54±0.33", "unit": "μM/g/fraction"}, {"measurement": "glutamate at 10 min. post stimulation", "setting": "[1]; 10 μM TRH", "value": "1.35±0.48", "unit": "μM/g/fraction"}, {"measurement": "peak 50 mM [K+]-stimulated glutamate release", "setting": "[1]; 10 μM TRH", "value": "2.35±0.50", "unit": "μM/g/fraction"}, {"measurement": "glutamate release by 50 mM [K+]-stimulation given 15 min. later", "setting": "[1]; 5 min. perfusion with KRB+10 μM TRH, p<0.05, FIG. 6", "value": "significantly (p<0.05) blocked"}, {"measurement": "reduction of Gαq/11 G proteins", "setting": "[2]", "value": "20-70%"}]}]}
